Experimental findings from patent publication US20240116985A1, “STAPLED PEPTIDES AND METHODS THEREOF” (priority 2020, published 2024) are described below.

Structures are written as SMILES.

This test has as its target T1, full-length beta-Catenin (Uniprot ID P35222) (Homo sapiens, UniProt P35222).
T1 construct: 10 nM full-length beta-Catenin (Uniprot ID P35222)
T1 sequence (P35222 1-781): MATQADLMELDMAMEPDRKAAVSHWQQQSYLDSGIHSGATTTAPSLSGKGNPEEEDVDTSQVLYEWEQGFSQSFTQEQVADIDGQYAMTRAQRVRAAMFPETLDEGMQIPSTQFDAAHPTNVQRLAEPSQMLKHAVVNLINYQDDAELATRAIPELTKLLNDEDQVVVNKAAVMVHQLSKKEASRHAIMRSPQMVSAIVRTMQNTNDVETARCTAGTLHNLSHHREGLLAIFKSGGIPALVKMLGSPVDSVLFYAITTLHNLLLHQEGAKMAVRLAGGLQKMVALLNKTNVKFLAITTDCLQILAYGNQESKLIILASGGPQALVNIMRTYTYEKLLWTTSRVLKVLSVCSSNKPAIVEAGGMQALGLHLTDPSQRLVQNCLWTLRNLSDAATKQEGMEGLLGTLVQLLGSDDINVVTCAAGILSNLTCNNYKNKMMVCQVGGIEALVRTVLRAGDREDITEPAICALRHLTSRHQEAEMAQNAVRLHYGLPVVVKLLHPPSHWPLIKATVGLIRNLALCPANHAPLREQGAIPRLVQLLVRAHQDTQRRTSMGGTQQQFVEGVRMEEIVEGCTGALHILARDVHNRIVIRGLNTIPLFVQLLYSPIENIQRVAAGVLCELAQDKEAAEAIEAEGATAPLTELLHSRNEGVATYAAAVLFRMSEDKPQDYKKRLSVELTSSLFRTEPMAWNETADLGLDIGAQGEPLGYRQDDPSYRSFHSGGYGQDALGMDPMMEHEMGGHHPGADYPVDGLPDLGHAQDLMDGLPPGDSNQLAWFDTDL
Briefly: Fluorescence polarization IC50 (beta-catenin / 5FAM-TCF4 10-53 competition). It is filed as binding. Particulars: fluorescence polarization; read-out: beta-Catenin FP IC50. (In general: In fluorescence polarisation assays a small probe gives low polarisation when free and higher when bound to something large.)
Take `CCCC[C@@H]1NC(=O)[C@H](Cc2ccccc2)NC(=O)[C@H](C)NC(=O)C(C)(C)NC(=O)[C@H](Cc2cccc(C(=O)O)c2)NC(=O)[C@H](CC(=O)O)NC(=O)C2(CCCC=CCCCOC(=O)N3CC[C@@](C(=O)N[C@@H](Cc4ccsc4)C(=O)N[C@@H](Cc4csc5ccccc45)C(=O)N[C@@H](CCC(=O)N4CCC(N5CCCCC5)CC4)C(N)=O)(C3)NC1=O)CCCC=CC[C@]1(CCCN1C(C)=O)C(=O)N[C@@H](CC(=O)O)C(=O)N[C@@H](CC(C)(C)C)C(=O)N2` (stereo partly drawn) [I-2555, Ac-PL3-Asp-Npg-B5-Asp-3COOHF-Aib-Ala-Phe-nLeu-PyrS2-3Thi-BztA-[4Pippip]GlnR-NH2]: the IC50 (in general, the point on the concentration scale where inhibition reaches its midpoint) is 11 nM.

`CC(=O)N[C@]1(C)CCCC=CCCCC2(CCCC=CCCCOC(=O)N3CC[C@@](C(=O)N[C@@H](Cc4ccccc4C(F)(F)F)C(=O)N[C@@H](Cc4csc5ccccc45)C(=O)N[C@@H](CCC(N)=O)C(N)=O)(C3)NC(=O)[C@H](CC(C)C)NC(=O)[C@H](Cc3ccccc3)NC(=O)[C@H](C)NC(=O)[C@H](C)NC(=O)[C@H](Cc3cccc(C(=O)O)c3)NC(=O)[C@H](CC(=O)O)NC2=O)NC(=O)[C@H](CC(C)(C)C)NC(=O)[C@H](CC(=O)O)NC1=O` (stereo partly drawn) [I-2564, Ac-R5-Asp-Npg-B5-Asp-3COOHF-Ala-Ala-Phe-Leu-PyrS2-2F3MeF-BztA-Gln-NH2]: the IC50 came to 259 nM.

In the case of `CC(=O)N1CCC[C@H]1C(=O)N[C@]1(C)CC=CCCCC2(CCCC=CCCCOC(=O)N3CC[C@@](C(=O)N[C@@H](Cc4ccccc4C(F)(F)F)C(=O)N[C@@H](Cc4csc5ccccc45)C(=O)N[C@@H](CCC(N)=O)C(N)=O)(C3)NC(=O)[C@H](CC(C)C)NC(=O)[C@H](Cc3ccccc3)NC(=O)[C@H](C)NC(=O)[C@H](C)NC(=O)[C@H](Cc3cccc(C(=O)O)c3)NC(=O)[C@H](CC(=O)O)NC2=O)NC(=O)[C@H](CC(C)(C)C)NC(=O)[C@H](CC(=O)O)NC1=O` (stereo partly drawn) [I-2566, Ac-Pro-R3-Asp-Npg-B5-Asp-3COOHF-Ala-Ala-Phe-Leu-PyrS2-2F3MeF-BztA-Gln-NH2], the IC50 is 181 nM.

In the case of `CC(=O)N1CCC[C@H]1C(=O)N[C@]1(C)CCCC=CCCCC2(CCCC=CCCCOC(=O)N3CC[C@@](C(=O)N[C@@H](Cc4ccccc4C(F)(F)F)C(=O)N[C@@H](Cc4csc5ccccc45)C(=O)N[C@@H](CCC(N)=O)C(N)=O)(C3)NC(=O)[C@H](CC(C)C)NC(=O)[C@H](Cc3ccccc3)NC(=O)[C@H](C)NC(=O)[C@H](C)NC(=O)[C@H](Cc3cccc(C(=O)O)c3)NC(=O)[C@H](CC(=O)O)NC2=O)NC(=O)[C@H](CC(C)(C)C)NC(=O)[C@H](CC(=O)O)NC1=O` (stereo partly drawn) [I-2567, Ac-Pro-R5-Asp-Npg-B5-Asp-3COOHF-Ala-Ala-Phe-Leu-PyrS2-2F3MeF-BztA-Gln-NH2], the IC50 was determined as 522 nM.

In the case of `CC(=O)N[C@]12CCN(C1)C(=O)OCC=CCCCC1(CCCC=CCCCOC(=O)N3CC[C@@](C(=O)N[C@@H](Cc4ccccc4C(F)(F)F)C(=O)N[C@@H](Cc4csc5ccccc45)C(=O)N[C@@H](CCC(N)=O)C(N)=O)(C3)NC(=O)[C@H](CC(C)C)NC(=O)[C@H](Cc3ccccc3)NC(=O)[C@H](C)NC(=O)[C@H](C)NC(=O)[C@H](Cc3cccc(C(=O)O)c3)NC(=O)[C@H](CC(=O)O)NC1=O)NC(=O)[C@H](CC(C)(C)C)NC(=O)[C@H](CC(=O)O)NC(=O)[C@H](C)NC2=O` (stereo partly drawn) [I-2568, Ac-PyrR-Ala-Asp-Npg-B5-Asp-3COOHF-Ala-Ala-Phe-Leu-PyrS2-2F3MeF-BztA-Gln-NH2], the IC50 came to 4770 nM.

Regarding `CC(=O)N[C@]12CCN(C1)C(=O)OCC=CCCCC1(CCCC=CCCCOC(=O)N3CC[C@@](C(=O)N[C@@H](Cc4ccccc4C(F)(F)F)C(=O)N[C@@H](Cc4csc5ccccc45)C(=O)N[C@@H](CCC(N)=O)C(N)=O)(C3)NC(=O)[C@H](CC(C)C)NC(=O)[C@H](Cc3ccccc3)NC(=O)[C@H](C)NC(=O)[C@H](C)NC(=O)[C@H](Cc3cccc(C(=O)O)c3)NC(=O)[C@H](CC(=O)O)NC1=O)NC(=O)[C@H](CC(C)(C)C)NC(=O)[C@H](CC(=O)O)NC(=O)[C@H](CCC(=O)O)NC2=O` (stereo partly drawn) [I-2569, Ac-PyrR-Glu-Asp-Npg-B5-Asp-3COOHF-Ala-Ala-Phe-Leu-PyrS2-2F3MeF-BztA-Gln-NH2], the IC50 was 1950 nM.

On to `CC(=O)N[C@]1(C)CCCCCCC2(CCCCCCCCOC(=O)N3CC[C@@](C(=O)N[C@@H](Cc4ccccc4C(F)(F)F)C(=O)N[C@@H](Cc4csc5ccccc45)C(=O)N[C@@H](CCC(N)=O)C(N)=O)(C3)NC(=O)[C@H](CC(C)C)NC(=O)[C@H](Cc3ccccc3)NC(=O)[C@H](C)NC(=O)[C@H](C)NC(=O)[C@H](Cc3cccc(C(=O)O)c3)NC(=O)[C@H](CC(=O)O)NC2=O)NC(=O)[C@H](CC(C)(C)C)NC(=O)[C@H](CC(=O)O)NC1=O` (stereo partly drawn) [I-2570, Ac-R3-Asp-Npg-B5-Asp-3COOHF-Ala-Ala-Phe-Leu-PyrS2-2F3MeF-BztA-Gln-NH2], for which the IC50 came to 1280 nM.

`CC(=O)N1CCC[C@H]1C(=O)N[C@]1(C)CCCCCCCCC2(CCCCCCCCOC(=O)N3CC[C@@](C(=O)N[C@@H](Cc4ccccc4C(F)(F)F)C(=O)N[C@@H](Cc4csc5ccccc45)C(=O)N[C@@H](CCC(N)=O)C(N)=O)(C3)NC(=O)[C@H](CC(C)C)NC(=O)[C@H](Cc3ccccc3)NC(=O)[C@H](C)NC(=O)[C@H](C)NC(=O)[C@H](Cc3cccc(C(=O)O)c3)NC(=O)[C@H](CC(=O)O)NC2=O)NC(=O)[C@H](CC(C)(C)C)NC(=O)[C@H](CC(=O)O)NC1=O` (stereo partly drawn) [I-2573, Ac-Pro-R5-Asp-Npg-B5-Asp-3COOHF-Ala-Ala-Phe-Leu-PyrS2-2F3MeF-BztA-Gln-NH2]: the IC50 is 234 nM.

Turning to `CC(=O)N[C@]1(C)CCCCCCCCC2(CCCCCCCCOC(=O)N3CC[C@@](C(=O)N[C@@H](Cc4ccccc4C(F)(F)F)C(=O)N[C@@H](Cc4csc5ccccc45)C(=O)N[C@@H](CCC(N)=O)C(N)=O)(C3)NC(=O)[C@H](CC(C)C)NC(=O)[C@H](Cc3ccccc3)NC(=O)[C@H](C)NC(=O)[C@H](C)NC(=O)[C@H](Cc3cccc(C(=O)O)c3)NC(=O)[C@H](CC(=O)O)NC2=O)NC(=O)[C@H](CC(C)(C)C)NC(=O)[C@H](CC(=O)O)NC(=O)[C@H](C)NC1=O` (stereo partly drawn) [I-2574, Ac-R5-Ala-Asp-Npg-B5-Asp-3COOHF-Ala-Ala-Phe-Leu-PyrS2-2F3MeF-BztA-Gln-NH2], the IC50 turned out to be 2960 nM.

With `CC(=O)N1CCC[C@H]1C(=O)N[C@]1(C)CCCC=CCCCC2(CCCC=CCCCOC(=O)N3CC[C@@](C(=O)N[C@@H](Cc4ccccc4C(F)(F)F)C(=O)N[C@@H](Cc4csc5ccccc45)C(=O)N[C@@H](CCC(N)=O)C(N)=O)(C3)NC(=O)[C@H](CC(C)C)NC(=O)[C@H](Cc3ccccc3)NC(=O)[C@H](C)NC(=O)[C@H](C)NC(=O)[C@H](Cc3cccc(C(=O)O)c3)NC(=O)[C@H](CC(=O)O)NC2=O)NC(=O)[C@H](CC(C)(C)C)NC(=O)[C@H](CC(=O)O)NC(=O)[C@H](CCC(=O)O)NC1=O` (stereo partly drawn) [I-2575, Ac-Pro-R5-Glu-Asp-Npg-B5-Asp-3COOHF-Ala-Ala-Phe-Leu-PyrS2-2F3MeF-BztA-Gln-NH2], the IC50 came out at 8160 nM.

On to `CC(=O)N1CCC[C@]12CC=CCCCC1(CCCC=CCCOC(=O)N3CCC(C(=O)N[C@@H](Cc4ccccc4C(F)(F)F)C(=O)N[C@@H](Cc4csc5ccccc45)C(=O)N[C@@H](CCC(N)=O)C(N)=O)(CC3)NC(=O)[C@H](CC(C)C)NC(=O)[C@H](Cc3ccccc3)NC(=O)[C@H](C)NC(=O)[C@H](C)NC(=O)[C@H](Cc3cccc(C(=O)O)c3)NC(=O)[C@H](CC(=O)O)NC1=O)NC(=O)[C@H](CC(C)(C)C)NC(=O)[C@H](CC(=O)O)NC2=O` (stereo partly drawn) [I-2580, Ac-PL3-Asp-Npg-B5-Asp-3COOHF-Ala-Ala-Phe-Leu-SPip1-2F3MeF-BztA-Gln-NH2], for which the IC50 worked out at 993 nM.

As for `CC(=O)N1CCC[C@]12CC=CCCCC1(CCCC=CCCOC(=O)N3CCC(C(=O)N[C@@H](Cc4ccccc4C(F)(F)F)C(=O)N[C@@H](Cc4csc5ccccc45)C(=O)N[C@@H](C)C(N)=O)(CC3)NC(=O)[C@H](CC(C)C)NC(=O)[C@H](Cc3ccccc3)NC(=O)[C@H](C)NC(=O)[C@H](CCC(N)=O)NC(=O)[C@H](Cc3cccc(C(=O)O)c3)NC(=O)[C@H](CC(=O)O)NC1=O)NC(=O)[C@H](CC(C)(C)C)NC(=O)[C@H](CC(=O)O)NC2=O` (stereo partly drawn) [I-2584, Ac-PL3-Asp-Npg-B5-Asp-3COOHF-Gln-Ala-Phe-Leu-SPip1-2F3MeF-BztA-Ala-NH2], the IC50 is 1840 nM.

Turning to `CC(=O)N1CCC[C@]12CC=CCCCC1(CCCC=CCCCOC(=O)N3CCC(C(=O)N[C@@H](Cc4ccccc4C(F)(F)F)C(=O)N[C@@H](Cc4csc5ccccc45)C(=O)N[C@@H](C)C(N)=O)(CC3)NC(=O)[C@H](CC(C)C)NC(=O)[C@H](Cc3ccccc3)NC(=O)[C@H](C)NC(=O)[C@H](CCC(N)=O)NC(=O)[C@H](Cc3cccc(C(=O)O)c3)NC(=O)[C@H](CC(=O)O)NC1=O)NC(=O)[C@H](CC(C)(C)C)NC(=O)[C@H](CC(=O)O)NC2=O` (stereo partly drawn) [I-2585, Ac-PL3-Asp-Npg-B5-Asp-3COOHF-Gln-Ala-Phe-Leu-SPip2-2F3MeF-BztA-Ala-NH2], the IC50 turned out to be 452 nM.
